What all share (type): in vitro ADME
One data set deals with T1, BCRP (Homo sapiens, UniProt Q9UNQ0).
T1 construct: expressed in transfected cells; host or cells: MDCK (canine kidney) cells expressing BCRP
T1 sequence (Q9UNQ0 1-655): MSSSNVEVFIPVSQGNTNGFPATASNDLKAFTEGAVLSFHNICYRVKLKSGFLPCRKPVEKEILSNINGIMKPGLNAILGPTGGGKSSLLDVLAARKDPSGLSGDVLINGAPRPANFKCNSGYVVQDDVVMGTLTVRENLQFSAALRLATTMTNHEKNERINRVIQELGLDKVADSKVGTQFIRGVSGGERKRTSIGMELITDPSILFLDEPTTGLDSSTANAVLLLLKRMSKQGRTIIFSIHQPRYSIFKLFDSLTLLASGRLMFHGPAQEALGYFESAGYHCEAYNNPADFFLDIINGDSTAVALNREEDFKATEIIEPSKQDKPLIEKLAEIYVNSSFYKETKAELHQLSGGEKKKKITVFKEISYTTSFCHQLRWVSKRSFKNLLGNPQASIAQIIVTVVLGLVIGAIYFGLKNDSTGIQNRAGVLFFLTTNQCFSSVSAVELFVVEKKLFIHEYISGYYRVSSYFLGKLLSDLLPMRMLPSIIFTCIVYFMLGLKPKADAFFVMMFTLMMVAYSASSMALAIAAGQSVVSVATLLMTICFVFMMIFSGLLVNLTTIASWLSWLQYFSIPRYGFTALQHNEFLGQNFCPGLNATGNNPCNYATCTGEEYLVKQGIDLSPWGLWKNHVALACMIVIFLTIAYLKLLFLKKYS
Nature of the data set: in vitro. The following applies: dog. The source says:
(§1) As pretargeting is a 2-component system, an ^18F-Tz was developed to be CNS-penetrant based on cnsPET-MPO modeling (Zhang, L., et al. (2018). J Med Chem 61(8): 3296-3308).

The target of a further data set is T2, P-gp (Homo sapiens, UniProt P08183).
T2 construct: expressed in transfected cells; host or cells: MDCK (canine kidney) cells expressing P-gp
T2 sequence (P08183 whole entry): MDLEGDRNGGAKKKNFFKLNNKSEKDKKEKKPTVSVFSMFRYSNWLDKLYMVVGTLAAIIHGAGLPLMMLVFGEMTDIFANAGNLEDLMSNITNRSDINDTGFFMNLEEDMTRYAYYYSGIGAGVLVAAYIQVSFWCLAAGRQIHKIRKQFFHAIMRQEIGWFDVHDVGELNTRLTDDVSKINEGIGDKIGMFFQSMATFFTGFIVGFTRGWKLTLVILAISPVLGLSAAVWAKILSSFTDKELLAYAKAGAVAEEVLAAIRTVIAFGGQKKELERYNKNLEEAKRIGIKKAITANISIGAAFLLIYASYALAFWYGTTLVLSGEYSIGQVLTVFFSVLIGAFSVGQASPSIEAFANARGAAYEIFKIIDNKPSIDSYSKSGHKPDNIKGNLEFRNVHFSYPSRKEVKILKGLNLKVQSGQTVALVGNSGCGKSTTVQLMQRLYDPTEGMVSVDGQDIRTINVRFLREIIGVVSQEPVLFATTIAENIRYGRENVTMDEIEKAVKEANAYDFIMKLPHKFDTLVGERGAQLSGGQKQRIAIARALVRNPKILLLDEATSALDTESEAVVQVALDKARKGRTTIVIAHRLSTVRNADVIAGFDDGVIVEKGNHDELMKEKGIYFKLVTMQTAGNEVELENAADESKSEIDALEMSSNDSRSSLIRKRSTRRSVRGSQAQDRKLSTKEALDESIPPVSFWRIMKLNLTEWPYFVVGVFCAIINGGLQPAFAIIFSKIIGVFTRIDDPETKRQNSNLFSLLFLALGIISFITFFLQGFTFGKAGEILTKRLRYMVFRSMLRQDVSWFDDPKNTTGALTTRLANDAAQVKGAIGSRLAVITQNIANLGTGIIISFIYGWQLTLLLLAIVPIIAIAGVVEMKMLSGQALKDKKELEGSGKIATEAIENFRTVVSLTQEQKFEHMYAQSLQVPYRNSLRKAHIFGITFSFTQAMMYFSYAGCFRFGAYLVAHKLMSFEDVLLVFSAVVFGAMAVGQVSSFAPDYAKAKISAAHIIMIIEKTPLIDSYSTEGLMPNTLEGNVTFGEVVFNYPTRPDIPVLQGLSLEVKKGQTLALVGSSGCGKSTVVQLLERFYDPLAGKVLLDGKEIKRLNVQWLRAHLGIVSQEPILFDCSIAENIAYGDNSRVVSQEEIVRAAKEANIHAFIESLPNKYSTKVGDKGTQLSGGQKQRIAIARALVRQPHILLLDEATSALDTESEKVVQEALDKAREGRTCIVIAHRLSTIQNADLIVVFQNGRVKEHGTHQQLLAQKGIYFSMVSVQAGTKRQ
Kind of data set: MDCK-P-gp cell model of permeability (efflux ratio). The following applies: dog, MDCK-MDR1.
Source text: as §1

Data set [1] in a line: Plasma protein binding (PPB). The following applies: rat, read-out: plasma protein binding, unbound.
Source text: as §1

A short description of data set [2]: Brain protein binding (BPB). Particulars: rat, brain tissue (brain protein binding).
Source text: as §1

SMILES strings stand for the structures.

For the compound `O=C(Cc1ccc(-c2nncnn2)cc1)NCCF` [Compound 1′, 2-(4-(1,2,4,5-tetrazin-3-yl)phenyl)-N-(2-fluoroethyl)acetamide], the efflux ratio (usually a quotient of directional permeabilities that is used to spot active efflux) on BCRP stood at 0.51; at P-gp, 1.71. Also, the figures for the fraction unbound in data set [1] and in data set [2] were 0.69 and 0.51, respectively.
